Patent US20130064907A1, “COMBINATIONS OF ANTIFUNGAL COMPOUNDS AND TEA TREE OIL” (priority 2010, published 2013)

How the values were obtained:
Assay type in all cases: in vivo
tomato powdery mildew = experiment: Tomato Powdery Mildew - Site 1, foliar sprays; conditions: 12 days from fourth application; TG 0.3%, Azoxystrobin 50 cc/dunam, alone or combined
Procedure: (§1) Various combinations of TTO (supplied as Timorex Gold®) and synthetic fungicidal compositions (supplied as commercial products to be diluted by the end user prior to use) were tested against tomato powdery mildew and pepper powdery mildew. Open field or greenhouse-grown plants of the crops studied were drip irrigated and fertilized according to known recommendations for each crop. Treatments were applied in a randomized complete block, with 5 replications per treatment. Plot size in each instance was of 5-10 m length, containing 6-20 plants, depending on the crop. Fungicidal treatment was applied using backpack sprayer equipped with a mist blower (STHIL 340) to spray a volume of 600 liter/ha, depending on the crop. From three to eight foliar sprays were applied at 7-14 day intervals, depending on the crop. Disease severity was evaluated by determining the leaf area covered with powdery mildew (disease severity) on each of 20 leaves randomly selected per each replicate. […] To analyze the results, an arc-sin transformation was performed on the raw data, and analysis of variance (ANOVA) using the SAS GLM procedure was applied to the transformed data. The Tukey-Kramer Test was applied to determine whether differences between treatments were significant. In the tables, “a”, “b” and “c”, refer to differences in statistical analysis that are familiar to users of the Tukey-Kramer test; “SF” is the “synergy” factor, calculated using the Abbott formula (SF=observed efficacy (Eobs)/expected efficacy (Eexp), where Eexp=α+β−[…], where α and β denote the levels of control afforded by materials α and β, respectively, alone; see e.g. Levy et al., EPPO Bull. 16, 651-657 (1986)).

pepper powdery mildew [1] = experiment: Pepper Powdery Mildew - Site 1, foliar sprays; conditions: 14 days from third application; TG 0.3%, Triadimenol 75 cc/dunam, Azoxystronin 50 cc/dunam, Trifloxystrobin 20 cc/dunam, alone or combined with TG
Procedure: as §1

pepper powdery mildew [2] = experiment: Pepper Powdery Mildew - Site 2, foliar sprays; conditions: 15 days from ninth application; TG 0.3%, Trifloxystrobin 20 gr/dunam, Myclobutanil 60 gr/dunam, alone or combined with TG
Procedure: Various combinations of TTO (supplied as Timorex Gold®) and synthetic fungicidal compositions (supplied as commercial products to be diluted by the end user prior to use) were tested against tomato powdery mildew and pepper powdery mildew. Open field or greenhouse-grown plants of the crops studied were drip irrigated and fertilized according to known recommendations for each crop. Treatments were applied in a randomized complete block, with 5 replications per treatment. Plot size in each instance was of 5-10 m length, containing 6-20 plants, depending on the crop. Fungicidal treatment was applied using backpack sprayer equipped with a mist blower (STHIL 340) to spray a volume of 600 liter/ha, depending on the crop. […] Disease severity was evaluated by determining the leaf area covered with powdery mildew (disease severity) on each of 20 leaves randomly selected per each replicate. […] To analyze the results, an arc-sin transformation was performed on the raw data, and analysis of variance (ANOVA) using the SAS GLM procedure was applied to the transformed data. The Tukey-Kramer Test was applied to determine whether differences between treatments were significant. In the tables, “a”, “b” and “c”, refer to differences in statistical analysis that are familiar to users of the Tukey-Kramer test; “SF” is the “synergy” factor, calculated using the Abbott formula (SF=observed efficacy (Eobs)/expected efficacy (Eexp), where Eexp=α+β−[…], where α and β denote the levels of control afforded by materials α and β, respectively, alone; see e.g. Levy et al., EPPO Bull. 16, 651-657 (1986)).

| SMILES | Incidence: % leaves infected (tomato powdery mildew) [%] | Incidence: Efficacy (%) (tomato powdery mildew) | Severity: % infected leaf area (tomato powdery mildew) [%] | Severity: Efficacy (%) (tomato powdery mildew) | Incidence: % leaves infected (pepper powdery mildew [1]) [%] | Incidence: Efficacy (%) (pepper powdery mildew [1]) | Severity: % infected leaf area (pepper powdery mildew [1]) [%] | Severity: Efficacy (%) (pepper powdery mildew [1]) | Incidence: % leaves infected (pepper powdery mildew [2]) [%] | Incidence: Efficacy (%) (pepper powdery mildew [2]) | Severity: % infected leaf area (pepper powdery mildew [2]) [%] | Severity: Efficacy (%) (pepper powdery mildew [2]) |
| --- | --- | --- | --- | --- | --- | --- | --- | --- | --- | --- | --- | --- |
| CO/C=C(/C(=O)OC)c1ccccc1Oc1cc(Oc2ccccc2C#N)ncn1 [Azoxystrobin] | 45 | 55.0 | 5 | 91.7 | 22.5 | 73.1 | 2.9 | 88.1 | – | – | – | – |
| CC(C)(C)C(O)C(Oc1ccc(Cl)cc1)n1cncn1 (stereo not drawn) [Triadimenol] | – | – | – | – | 48.7 | 41.8 | 8.4 | 65.6 | – | – | – | – |
| CCCCC(C#N)(Cn1cncn1)c1ccc(Cl)cc1 (stereo not drawn) [Myclobutanil] | – | – | – | – | – | – | – | – | 2 | 96.9 | 0 | 100.0 |
| CON=C(C(=O)OC)c1ccccc1CON=C(C)c1cccc(C(F)(F)F)c1 [Trifloxystrobin] | – | – | – | – | 25 | 70.1 | 1.9 | 92.2 | 2 | 96.9 | 0.1 | 99.6 |
